The test system of one assay is MEF cells. Kind of assay: Frontotemporal dementia cellular model (progranulin knockdown in MEF cells). In kind it is cell-based. The settings on record: PGRN siRNA mix, 1 μM or 5 μM, 48 hours (FIG. 13). The protocol: MEF cells were maintained at 37° C. and 5% CO2 in DMEM supplemented with 10% fetal bovine serum (FBS), 2 mM L-glutamine, 100 U/ml penicillin, and 100 μg/ml streptomycin. After reaching 80% of confluence, cells were detached and seeded on 6-well plates in complete media at a density of 3×10^5 cells/well and allowed to recover for 48 h. To perform a knockdown expression of the progranulin protein, cells were then washed three times with PBS and treated with small interference RNA (siRNA) mix, that target progranulin (PGRN) gene (Qiagen FlexiTube siRNA mix, Cat No 1027416), according to manufacturer instructions.
Transfection media with siRNA mix was supplemented with OPTIMEM medium alone (GRN7) or 1 μM or 5 μM compound 58 in OPTIMEM medium. Transfection media without siRNA mix (Veh) and cells cultured in OPTIMEM medium alone (Unt) were used as controls.
After 48 hours treatment, culture media were removed and cells were lysed with SDS-PAGE lysis buffer. Lysates were transferred to 1.5 ml tubes and sonicated for 3 min. Total protein amount was quantified using BCA Protein Assay Kit (Pierce). Equal amount of proteins (30 μg) was loaded on SDS-PAGE gels. […]
PGRN (R&D Systems) and β-actin (Sigma-Aldrich) antibodies were used as primary antibodies. […] Quantification of protein bands was done by densitometry using ImageJ software. […]

For a further assay, the system named is CHO cells. Kind of assay: Protein production by transient gene expression (GFP in CHO cells). The conditions noted are these: pIRES2-AcGFP1, 1 μM or 5 μM, 24 hours (FIGS. 12A, 12B). Type of assay: cell-based, Chinese hamster. The protocol:
CHO cells were maintained at 37° C. and 5% CO2 in DMEM supplemented with 10% fetal bovine serum (FBS), 2 mM L-glutamine, 100 U/ml penicillin, and 100 μg/ml streptomycin. After reaching 80% of confluence, cells were detached and seeded on 6-well plates in complete media and allowed to recover for 48 h. Cells were then washed three times with PBS and transfected with 1 μg of plasmid pIRES2-AcGFP1 (Clonetech 632435) using Lipofectamine LTX (Thermofisher Scientific) according to manufacturer instructions. Transfection media was supplemented with culture medium alone (vehicle) or 1 μM or 5 μM compound 58 in culture medium.
After 24 hours treatment, culture media were removed and cells were lysed with SDS-PAGE lysis buffer. Lysates were transferred to 1.5 ml tubes and sonicated for 3 min. Total protein amount was quantified using BCA Protein Assay Kit (Pierce). Equal amount of proteins (30 μg) was loaded on SDS-PAGE gels. […]
GFP (cell Signaling) and β-actin (Sigma-Aldrich) antibodies were used as primary antibodies. […] Quantification of protein bands was done by densitometry using ImageJ software.
The levels were normalized to β-actin expression and percentage was calculated as the percent relative to the expression of GFP in untreated condition (Veh) which corresponds to 100%.

In another assay the test system is ATF4. Description: ATF4 inhibition assay under Aβ stimulation (SH-SY5Y cells with 7PA2 CHO conditioned media). Type of assay: cell-based, human. The conditions noted are these: 16 hours, 1 nM to 10 μM compound (FIG. 7). Here is the method:
Chinese hamster ovary (CHO) cells that stably express human APP751 incorporating the familial Alzheimer's disease mutation V717F were used as a source of […] monomer and low-n oligomers. These cells, referred to as 7PA2 CHO cells, were cultured in 100 mm dishes with Dulbecco's modified Eagle's medium (DMEM) containing 10% fetal bovine serum, 2 mM L-glutamine, 100 U/ml penicillin, and 100 μg/ml […], streptomycin and […] G418. Upon reaching 90-100% confluency, cells were washed with 5 mL of glutamine- and serum-free DMEM and incubated for approximately 16 h in 5 mL of the same DMEM. Conditioned media (CM) was collected.
SH-SY5Y cells were maintained at 37° C. and 5% CO2 in RPMI 1640 media supplemented with 10% fetal bovine serum (FBS), penicillin and streptomycin. After reaching 80% of confluence, cells were detached and seeded on 6 well plates in complete media, allowed to recover 48 h and treated for 16 hours with CM from WT CHO cells (wtCM) or 7PA2 CHO cells (7PA2CM) in the presences of various concentrations ranging from 1 nM to 10 μM of compound 58.
After 16 hours treatment, culture media were removed and cells were lysed with SDS-PAGE lysis buffer. Lysates were transferred to 1.5 ml tubes and sonicated for 3 min. Total protein amount was quantified using BCA Protein Assay Kit (Pierce). Equal amount of proteins (30 μg) were loaded on SDS-PAGE gels. […]

The structures appear in SMILES notation.

On to `O=C(NN1CCN(C[C@@H](O)COc2ccc(Cl)c(F)c2)CC1)c1ccc2cc(Cl)ccc2n1` [Compound 58, (R)-6-chloro-N-(4-(3-(4-chloro-3-fluorophenoxy)-2-hydroxypropyl)piperazin-1-yl)quinoline-2-carboxamide], for which the “expression of PGRN (progranulin) in siRNA knockdown condition” value in the assay on MEF cells was “increased expression of progranulin”. In addition, the “expression of GFP after transient transfection” value in the assay on CHO cells was “increased expression of GFP”. For the same compound, in the assay with ATF4, the “ATF4 expression in the presence of Aβ oligomers (immunoblot)” value is reported as “inhibits the expression of ATF4 in the presence of Aβ oligomers treatment in a dose dependent manner”.
